Measured values as given in ChEMBL document CHEMBL1201862, “PubChem BioAssay data set” (2004).
Activity calls are given as the source filed them.

Columns and labels:
Prothrombin = Prothrombin (Homo sapiens, UniProt P00734); experiment: Thrombin 1536 HTS Dose Response Confirmation. [Related pubchem assays: 1046 (Thrombin 1536 HTS; hits were confirmed in this assay)]; format: functional
[1] = target: T1, Aryl hydrocarbon receptor (Homo sapiens, UniProt P35869); experiment: Luminescence-based cell-based high throughput dose response assay for activators of the Aryl Hydrocarbon Receptor (AHR). [Related pubchem assays: 2796 (Primary screen (AHR activators in singlicate)), 2845 (Confirmation screen (AHR activators in triplicate)), 434939 (Counterscreen (PXR activators in triplicate)), 2804 (Summary (AHR activators))]; format: ADME
T1 sequence (P35869 whole entry): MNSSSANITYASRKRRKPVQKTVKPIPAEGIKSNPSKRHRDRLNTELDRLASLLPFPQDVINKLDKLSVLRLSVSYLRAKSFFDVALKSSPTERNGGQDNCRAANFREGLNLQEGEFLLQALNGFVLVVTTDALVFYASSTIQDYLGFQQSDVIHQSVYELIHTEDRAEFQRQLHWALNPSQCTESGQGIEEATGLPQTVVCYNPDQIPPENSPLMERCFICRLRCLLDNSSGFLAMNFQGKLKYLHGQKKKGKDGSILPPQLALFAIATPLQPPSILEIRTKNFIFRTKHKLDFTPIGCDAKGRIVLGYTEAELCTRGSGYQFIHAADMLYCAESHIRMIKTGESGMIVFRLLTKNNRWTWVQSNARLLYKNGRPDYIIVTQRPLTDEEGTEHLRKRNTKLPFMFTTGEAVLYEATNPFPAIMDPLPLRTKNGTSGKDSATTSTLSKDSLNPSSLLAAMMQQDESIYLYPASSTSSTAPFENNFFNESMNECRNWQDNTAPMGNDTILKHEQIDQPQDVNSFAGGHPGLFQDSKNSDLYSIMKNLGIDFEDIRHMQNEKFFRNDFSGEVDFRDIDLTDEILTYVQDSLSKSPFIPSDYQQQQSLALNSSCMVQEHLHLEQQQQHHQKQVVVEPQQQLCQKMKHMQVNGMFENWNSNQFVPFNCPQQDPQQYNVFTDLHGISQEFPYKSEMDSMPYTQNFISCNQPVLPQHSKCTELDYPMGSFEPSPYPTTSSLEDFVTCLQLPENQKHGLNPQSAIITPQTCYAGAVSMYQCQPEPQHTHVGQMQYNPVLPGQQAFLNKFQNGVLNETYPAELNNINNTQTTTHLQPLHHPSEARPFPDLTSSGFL

H9c2 = experiment: cells; format: functional, cell-based; conditions: Rattus norvegicus, H9c2, Myocardium;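 further: confirmatory concentration-response retest of ultra-high-throughput screening hits for modulation of myocardial damage; cell death induced by hydrogen peroxide oxidative stress; compound pretreatment for 60 min then peroxide exposure for 2 h; potency is for protecting the cells against peroxide damage rather than for killing them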
Estrogen receptor = target: T2, Estrogen receptor (Homo sapiens, UniProt P03372);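 further: potency for inhibiting coactivator peptide recruitment to the receptor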
T2 sequence (P03372 whole entry): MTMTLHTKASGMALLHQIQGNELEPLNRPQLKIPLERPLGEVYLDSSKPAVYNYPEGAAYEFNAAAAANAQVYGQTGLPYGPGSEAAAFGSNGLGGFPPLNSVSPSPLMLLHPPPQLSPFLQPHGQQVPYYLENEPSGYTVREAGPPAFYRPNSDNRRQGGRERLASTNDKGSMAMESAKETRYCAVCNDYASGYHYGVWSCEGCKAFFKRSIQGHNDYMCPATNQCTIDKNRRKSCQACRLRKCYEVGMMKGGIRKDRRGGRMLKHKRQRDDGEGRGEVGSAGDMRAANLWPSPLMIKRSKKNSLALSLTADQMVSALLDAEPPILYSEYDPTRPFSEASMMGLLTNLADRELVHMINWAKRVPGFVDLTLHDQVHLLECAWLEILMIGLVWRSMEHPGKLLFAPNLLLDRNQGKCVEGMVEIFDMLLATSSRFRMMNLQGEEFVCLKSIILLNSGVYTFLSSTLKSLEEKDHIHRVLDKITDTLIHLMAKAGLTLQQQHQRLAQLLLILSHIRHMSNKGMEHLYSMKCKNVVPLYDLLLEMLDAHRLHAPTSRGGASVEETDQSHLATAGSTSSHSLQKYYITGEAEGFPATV

[2] = target: Polyadenylate-binding protein 1 (Homo sapiens, UniProt P11940); experiment: PABP poly(A) RNA binding inhibitors, primary screen, biochemical, fluorescence polarization, uHTS (AID 2014)
[3] = target: Eukaryotic translation initiation factor 4H (Homo sapiens, UniProt Q15056); experiment: human eIF4H binding inhibitors, primary screen, translation initiation inhibitor project, biochemical, uHTS, fluorescence polarization (AID 2012)
Aminopeptidase N = target: T3, Aminopeptidase N (Plasmodium falciparum FcB1/Columbia, UniProt O96935); experiment: P. falciparum M1AAP inhibitors, biochemical, fluorogenic H-Leu-NHMec substrate, 1536-well (AID 1445); set-up: species or system Plasmodium falciparum 3D7, 3D7
T3 sequence (O96935 whole entry): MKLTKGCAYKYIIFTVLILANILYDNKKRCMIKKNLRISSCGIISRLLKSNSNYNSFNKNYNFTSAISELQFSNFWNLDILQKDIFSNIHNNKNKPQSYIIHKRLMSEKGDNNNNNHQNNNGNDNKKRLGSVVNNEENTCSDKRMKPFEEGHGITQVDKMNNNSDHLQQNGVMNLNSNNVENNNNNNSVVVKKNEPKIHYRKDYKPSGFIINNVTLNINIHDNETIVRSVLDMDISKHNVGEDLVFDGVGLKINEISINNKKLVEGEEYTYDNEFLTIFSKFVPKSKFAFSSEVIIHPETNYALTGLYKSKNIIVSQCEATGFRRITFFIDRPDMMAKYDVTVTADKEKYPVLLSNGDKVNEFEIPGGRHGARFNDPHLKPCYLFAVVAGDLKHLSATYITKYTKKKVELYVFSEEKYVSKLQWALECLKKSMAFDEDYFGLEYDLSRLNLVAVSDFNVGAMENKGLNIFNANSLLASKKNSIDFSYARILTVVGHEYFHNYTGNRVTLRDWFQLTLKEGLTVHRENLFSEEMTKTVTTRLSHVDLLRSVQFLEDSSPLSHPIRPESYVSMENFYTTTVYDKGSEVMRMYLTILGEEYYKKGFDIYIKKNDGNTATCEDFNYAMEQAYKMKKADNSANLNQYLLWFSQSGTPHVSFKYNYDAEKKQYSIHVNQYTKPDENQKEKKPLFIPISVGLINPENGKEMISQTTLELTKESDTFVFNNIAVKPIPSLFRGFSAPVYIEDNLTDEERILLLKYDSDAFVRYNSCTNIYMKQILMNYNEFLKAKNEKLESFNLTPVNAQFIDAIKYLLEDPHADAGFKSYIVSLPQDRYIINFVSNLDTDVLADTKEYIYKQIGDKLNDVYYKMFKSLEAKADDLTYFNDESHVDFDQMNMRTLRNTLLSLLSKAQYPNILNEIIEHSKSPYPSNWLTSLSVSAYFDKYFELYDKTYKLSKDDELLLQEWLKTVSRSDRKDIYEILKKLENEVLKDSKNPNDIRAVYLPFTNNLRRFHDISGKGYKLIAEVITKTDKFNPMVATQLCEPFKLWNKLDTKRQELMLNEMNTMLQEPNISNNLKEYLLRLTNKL

Large T antigen = Large T antigen (Simian virus 40, UniProt P03070); format: functional, Betapolyomavirus macacae;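 further: Confirmatory-stage PubChem screen for compounds that inhibit SV40 T antigen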
[4] = inhibitors of Vif binding to APOBEC3G peptide, primary screen, biochemical, TR-FRET, GST-Vif 1-94, biotin-A3G peptide, dose response retest (AID 1117319); format: functional;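 further: TR-FRET signal of purified GST-Vif binding a biotinylated A3G peptide; inhibitors lower the FRET signal by blocking Vif and A3G binding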
[5] = target: FAD-linked sulfhydryl oxidase ALR (Homo sapiens, UniProt P55789); experiment: inhibitors of human ALR sulfhydryl oxidase, dose response, biochemical, H2O2 detection, luminescence, cherry-pick (AID 493248)
[6] = target: T4, Rac GTPase-activating protein 1 (Homo sapiens, UniProt Q9H0H5); experiment: MgcRacGAP GTPase-activating activity inhibitors, confirmation, biochemical, ADP Hunter fluorescence, primary and confirmatory (AID 624330); format: functional
T4 sequence (Q9H0H5 whole entry): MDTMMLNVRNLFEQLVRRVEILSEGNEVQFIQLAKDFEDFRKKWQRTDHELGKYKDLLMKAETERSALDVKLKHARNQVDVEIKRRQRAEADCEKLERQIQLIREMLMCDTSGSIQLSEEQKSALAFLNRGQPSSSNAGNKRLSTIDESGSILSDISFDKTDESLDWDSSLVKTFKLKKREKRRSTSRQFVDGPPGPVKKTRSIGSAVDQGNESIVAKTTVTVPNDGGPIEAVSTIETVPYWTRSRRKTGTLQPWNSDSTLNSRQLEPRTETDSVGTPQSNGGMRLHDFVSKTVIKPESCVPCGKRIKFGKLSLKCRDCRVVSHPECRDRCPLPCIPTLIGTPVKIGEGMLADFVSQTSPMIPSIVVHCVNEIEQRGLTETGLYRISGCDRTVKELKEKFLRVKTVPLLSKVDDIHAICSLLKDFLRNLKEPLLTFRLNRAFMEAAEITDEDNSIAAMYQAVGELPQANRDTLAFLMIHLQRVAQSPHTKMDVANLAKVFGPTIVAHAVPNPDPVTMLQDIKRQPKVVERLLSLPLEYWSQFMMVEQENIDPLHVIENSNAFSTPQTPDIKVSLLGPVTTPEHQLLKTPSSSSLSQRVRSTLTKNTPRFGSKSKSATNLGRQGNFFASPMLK

Hexokinase HKDC1 = target: T5, Hexokinase HKDC1 (Homo sapiens, UniProt Q2TB90); experiment: HKDC1 hexokinase inhibitors, dose response, biochemical, W721R variant (AID 504729); format: functional
T5 sequence (Q2TB90 whole entry): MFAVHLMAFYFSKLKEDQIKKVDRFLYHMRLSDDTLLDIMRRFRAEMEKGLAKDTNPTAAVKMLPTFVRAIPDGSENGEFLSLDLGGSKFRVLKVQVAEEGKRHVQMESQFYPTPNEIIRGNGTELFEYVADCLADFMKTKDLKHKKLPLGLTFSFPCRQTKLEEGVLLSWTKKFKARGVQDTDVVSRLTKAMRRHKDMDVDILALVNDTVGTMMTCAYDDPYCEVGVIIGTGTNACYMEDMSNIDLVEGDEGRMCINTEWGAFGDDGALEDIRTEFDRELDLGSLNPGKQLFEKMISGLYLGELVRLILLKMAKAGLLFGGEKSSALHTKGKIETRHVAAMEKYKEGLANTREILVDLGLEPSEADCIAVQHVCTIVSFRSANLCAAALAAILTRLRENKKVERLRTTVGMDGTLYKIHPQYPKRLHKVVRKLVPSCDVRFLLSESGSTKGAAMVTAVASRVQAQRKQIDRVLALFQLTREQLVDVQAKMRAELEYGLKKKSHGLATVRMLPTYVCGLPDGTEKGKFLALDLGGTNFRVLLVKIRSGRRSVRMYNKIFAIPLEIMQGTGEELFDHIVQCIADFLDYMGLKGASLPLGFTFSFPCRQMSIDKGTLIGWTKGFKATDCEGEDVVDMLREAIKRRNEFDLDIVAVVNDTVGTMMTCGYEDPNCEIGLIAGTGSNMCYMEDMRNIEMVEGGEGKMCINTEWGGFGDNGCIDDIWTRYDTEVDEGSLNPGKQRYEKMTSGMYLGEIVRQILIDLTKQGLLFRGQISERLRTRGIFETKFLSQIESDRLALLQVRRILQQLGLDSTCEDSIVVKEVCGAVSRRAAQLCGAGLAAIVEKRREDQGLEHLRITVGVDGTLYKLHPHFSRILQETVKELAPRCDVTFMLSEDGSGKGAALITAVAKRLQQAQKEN

[7] = target: DNA dC->dU-editing enzyme APOBEC-3G (Homo sapiens, UniProt Q9HC16); format: functional;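 further: Dose-response counterscreen measuring inhibition of APOBEC3G DNA deaminase activity, run while confirming APOBEC3A inhibitors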
[8] = target: DNA dC->dU-editing enzyme APOBEC-3A (Homo sapiens, UniProt P31941); experiment: Dose Response confirmation of small molecule APOBEC3A DNA Deaminase Inhibitors via a fluorescence-based single-stranded DNA deaminase assay. [Related pubchem assays (depositor defined):AID493011, AID493024]; format: functional
[9] = NIH-3T3 fibroblast cytotoxicity, dose response, cytotoxicity control, cell-based, fluorescence, Alamar Blue, secondary assay (AID 2327); format: functional;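 further: NIH-3T3 mouse fibroblasts cultured with fluconazole at 8 µg/mL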
Nonstructural protein 1 = Nonstructural protein 1 (Influenza A virus, UniProt Q194T2); format: functional, Influenza A virus (A/California/07/2009(H1N1))
[10] = C. albicans growth with fluconazole, confirmation, fluorescence, retest (AID 2467); format: functional, cell-based

Chain of Polyadenylate-binding protein 1 (P11940 whole entry): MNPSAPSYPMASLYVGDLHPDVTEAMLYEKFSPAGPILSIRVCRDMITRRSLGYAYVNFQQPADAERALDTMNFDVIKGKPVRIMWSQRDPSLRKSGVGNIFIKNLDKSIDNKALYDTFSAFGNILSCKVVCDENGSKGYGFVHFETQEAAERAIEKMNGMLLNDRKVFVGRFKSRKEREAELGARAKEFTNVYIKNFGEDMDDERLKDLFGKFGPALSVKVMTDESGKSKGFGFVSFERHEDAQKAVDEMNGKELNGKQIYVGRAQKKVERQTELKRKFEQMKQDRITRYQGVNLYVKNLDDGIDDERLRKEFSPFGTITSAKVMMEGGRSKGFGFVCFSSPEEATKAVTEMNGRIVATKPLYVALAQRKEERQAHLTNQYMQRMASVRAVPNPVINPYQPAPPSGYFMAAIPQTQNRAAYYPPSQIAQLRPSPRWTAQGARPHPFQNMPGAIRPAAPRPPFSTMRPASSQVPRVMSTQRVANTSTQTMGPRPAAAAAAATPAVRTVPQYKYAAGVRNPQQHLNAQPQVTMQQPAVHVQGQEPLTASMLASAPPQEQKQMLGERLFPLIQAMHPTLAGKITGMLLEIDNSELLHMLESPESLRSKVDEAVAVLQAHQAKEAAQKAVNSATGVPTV
Chain of Large T antigen (P03070 whole entry): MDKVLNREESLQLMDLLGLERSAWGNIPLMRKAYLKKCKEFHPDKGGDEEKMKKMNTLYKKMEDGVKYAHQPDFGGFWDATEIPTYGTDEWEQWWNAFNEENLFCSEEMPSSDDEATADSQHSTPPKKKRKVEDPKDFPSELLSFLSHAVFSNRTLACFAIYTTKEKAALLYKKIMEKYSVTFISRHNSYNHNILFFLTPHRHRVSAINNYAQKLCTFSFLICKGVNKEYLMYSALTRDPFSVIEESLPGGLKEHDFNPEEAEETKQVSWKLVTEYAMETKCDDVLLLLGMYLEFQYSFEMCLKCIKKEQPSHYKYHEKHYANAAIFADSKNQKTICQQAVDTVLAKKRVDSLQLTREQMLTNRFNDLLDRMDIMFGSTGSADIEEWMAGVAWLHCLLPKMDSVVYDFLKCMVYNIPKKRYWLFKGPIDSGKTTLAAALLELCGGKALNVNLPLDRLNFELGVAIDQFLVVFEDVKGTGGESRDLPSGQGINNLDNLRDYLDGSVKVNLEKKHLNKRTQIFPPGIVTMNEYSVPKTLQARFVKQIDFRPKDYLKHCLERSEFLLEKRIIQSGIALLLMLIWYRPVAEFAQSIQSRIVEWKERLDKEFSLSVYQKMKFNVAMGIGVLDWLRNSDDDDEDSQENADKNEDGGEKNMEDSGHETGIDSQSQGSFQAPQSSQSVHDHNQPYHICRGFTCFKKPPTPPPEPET
Chain of FAD-linked sulfhydryl oxidase ALR (P55789 whole entry): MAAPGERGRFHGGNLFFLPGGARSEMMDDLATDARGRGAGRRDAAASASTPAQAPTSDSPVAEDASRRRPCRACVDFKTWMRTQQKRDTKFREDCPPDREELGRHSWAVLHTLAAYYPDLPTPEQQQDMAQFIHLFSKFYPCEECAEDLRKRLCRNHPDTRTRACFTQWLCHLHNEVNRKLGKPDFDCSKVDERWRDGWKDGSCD
Chain of DNA dC->dU-editing enzyme APOBEC-3A (P31941 whole entry): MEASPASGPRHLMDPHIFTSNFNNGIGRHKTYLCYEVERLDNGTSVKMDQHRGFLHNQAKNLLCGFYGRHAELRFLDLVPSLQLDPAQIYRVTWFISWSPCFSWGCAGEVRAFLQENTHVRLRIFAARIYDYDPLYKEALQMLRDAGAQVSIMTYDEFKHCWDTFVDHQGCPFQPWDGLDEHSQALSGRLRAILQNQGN
Chain of DNA dC->dU-editing enzyme APOBEC-3G (Q9HC16 whole entry): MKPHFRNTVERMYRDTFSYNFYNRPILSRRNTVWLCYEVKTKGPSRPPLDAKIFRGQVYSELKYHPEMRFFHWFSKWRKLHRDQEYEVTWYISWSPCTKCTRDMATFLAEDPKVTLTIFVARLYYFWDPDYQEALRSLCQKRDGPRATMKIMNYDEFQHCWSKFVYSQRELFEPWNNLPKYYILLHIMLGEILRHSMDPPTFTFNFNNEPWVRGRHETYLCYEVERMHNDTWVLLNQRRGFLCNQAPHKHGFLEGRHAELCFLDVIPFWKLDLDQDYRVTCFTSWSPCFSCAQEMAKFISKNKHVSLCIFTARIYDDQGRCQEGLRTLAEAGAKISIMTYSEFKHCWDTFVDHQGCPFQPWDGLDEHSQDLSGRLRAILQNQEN
Chain of Nonstructural protein 1 (Q194T2 whole entry): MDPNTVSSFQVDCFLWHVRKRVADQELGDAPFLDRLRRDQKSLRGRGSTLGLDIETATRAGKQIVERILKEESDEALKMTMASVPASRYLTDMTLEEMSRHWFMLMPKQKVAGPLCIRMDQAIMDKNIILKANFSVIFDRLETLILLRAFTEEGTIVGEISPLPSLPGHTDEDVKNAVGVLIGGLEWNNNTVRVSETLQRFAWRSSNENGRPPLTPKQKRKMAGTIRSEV

In the case of `Nc1nncn1C(=O)CCc1ccccc1`, the IC50 (Prothrombin) is reported as 0.605 µM (active).
With `COC(=O)C1CC(=O)c2ccsc2C1` (stereo unspecified) the IC50 (Prothrombin) was > 50 µM (not active).
With `Cn1c(=O)c2c(nc(/C=C/c3cccc(Cl)c3)n2C)n(C)c1=O` the EC50 [1] was 3.34 µM (active).
With `CC(=O)n1cc(/C=N/NC(=O)c2sc(C)nc2C)c2ccccc21` the IC50 (H9c2) was > 79 µM (inactive) and the EC50 [1] was > 91.7 µM (not active).
In the case of `Cn1c(N)c(C(=O)Nc2ccccc2F)sc1=S`, the EC50 [1] is reported as 0.857 µM (active).
In the case of `CCC(=O)n1nc(-c2ccc(Cl)cc2)nc1SC`, the IC50 (Prothrombin) is reported as 7.14 µM (active).
For `O=C(Nc1nc2ccccc2s1)c1cc2c(s1)-c1ccccc1OC2`, the IC50 (Estrogen receptor) was > 50 µM (not active).
For `C[n+]1cnn2c1SCC1(COC1)C2`, the IC50 [2] was 4.59 µM (active) and the IC50 [3] was > 100 µM (inactive).
For `COc1cc(/C=C2\SC(=S)N(C(Cc3ccccc3)C(=O)O)C2=O)ccc1O` (stereo unspecified), the IC50 (Aminopeptidase N) was 42.3 µM (active) and the IC50 (Large T antigen) was 65 µM (active).
For `CCN(CC)c1ccc(NC(=O)c2ccc(Br)o2)cc1`, the IC50 [4] was > 100 µM (active), the AC50 [5] was 0.745 µM (active) and the IC50 [6] was 25.9 µM (active).
With `COc1ccccc1NC(=O)C1C2CCCCC21` (stereo unspecified) the IC50 (Prothrombin) was > 50 µM (not active).
With `CCCS(=O)(=O)N1CCC(C(=O)NCc2ccc(F)cc2)CC1` the IC50 (Aminopeptidase N) was 31.6 µM (active).
For `COc1cc(/C=C2/C(=O)NN(c3ccc(Cl)c(Cl)c3)C2=O)cc([N+](=O)[O-])c1O`, the IC50 (Hexokinase HKDC1) was 32.5 µM (inactive), the AC50 [5] was 0.409 µM (active) and the IC50 (Large T antigen) was 12.5 µM (active).
In the case of `COc1ccc(N(CC(=O)N2CCCCCC2)S(=O)(=O)c2ccccc2[N+](=O)[O-])c(OC)c1`, the IC50 [2] is reported as 11.9 µM (active), the IC50 [7] is reported as 4.83 µM (active) and the IC50 [8] is reported as 5.63 µM (active). For the same molecule, the IC50 [3] was > 100 µM (inactive).
With `Cc1cc(C(F)F)n2ncc(C(=O)NCCc3ccc(Cl)cc3)c2n1` the IC50 (Hexokinase HKDC1) was 12.7 µM (active).
For `COc1cc(-c2nnc(-c3ccc(S(=O)(=O)c4ccccc4)cc3)o2)cc(OC)c1OC`, the IC50 (Estrogen receptor) was > 50 µM (not active).
With `Oc1ccc(/C=N/N(c2ccccc2)c2ccccc2)c(O)c1O` the EC50 [9] was > 160 µM (inactive), the IC50 (Nonstructural protein 1) was 47.6 µM (active) and the IC50 [2] was > 100 µM (inactive). For the same molecule, the EC50 [10] was > 38 µM (not active) and the IC50 [3] was 31.7 µM (active).
